Reference: patent publication US7851474B2, “Dipiperazinyl ketones and related analogues” (Neurogen Corporation, priority 2005, dated 2010)

These compounds were tested against T1, chimeric human H3 receptor (Homo sapiens, UniProt Q9Y5N1, E19D) (assay: Chimeric human H3 receptor GTP binding assay (agonist-stimulated GTP-gamma35S binding, Example 7)). Details: Table II "Ki", symbol "*": Ki in the assay of Example 7; read-out: Ki.
T1 construct: made in house; host or cells: Sf9 insect cells (baculovirus infection); P2 membrane preparation
T1 sequence (Q9Y5N1 with tags, fused parts or gaps E19D): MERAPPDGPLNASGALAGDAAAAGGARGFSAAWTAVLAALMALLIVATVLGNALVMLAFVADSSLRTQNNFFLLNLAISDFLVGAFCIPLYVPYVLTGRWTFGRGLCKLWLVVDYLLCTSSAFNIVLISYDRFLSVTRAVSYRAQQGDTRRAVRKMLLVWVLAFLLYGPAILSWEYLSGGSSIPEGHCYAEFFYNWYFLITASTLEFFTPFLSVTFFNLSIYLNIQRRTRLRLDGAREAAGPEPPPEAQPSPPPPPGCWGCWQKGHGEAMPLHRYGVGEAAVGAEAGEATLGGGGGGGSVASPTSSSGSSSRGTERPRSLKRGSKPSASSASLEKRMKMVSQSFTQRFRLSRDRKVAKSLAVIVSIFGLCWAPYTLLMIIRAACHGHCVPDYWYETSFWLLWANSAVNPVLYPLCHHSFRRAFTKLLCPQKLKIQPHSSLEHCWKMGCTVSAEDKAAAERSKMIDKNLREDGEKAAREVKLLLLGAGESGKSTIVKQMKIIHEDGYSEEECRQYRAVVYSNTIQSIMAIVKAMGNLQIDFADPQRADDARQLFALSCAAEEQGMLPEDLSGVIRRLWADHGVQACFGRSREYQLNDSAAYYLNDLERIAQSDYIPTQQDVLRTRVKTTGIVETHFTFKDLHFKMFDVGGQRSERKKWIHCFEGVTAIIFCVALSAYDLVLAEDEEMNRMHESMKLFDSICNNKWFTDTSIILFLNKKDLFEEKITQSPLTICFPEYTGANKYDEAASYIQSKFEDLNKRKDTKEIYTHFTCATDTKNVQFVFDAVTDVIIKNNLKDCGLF
Assay type: biochemical
Procedure, shortened: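 Sf9 membranes co-expressing the chimeric receptor and heterotrimeric G-protein subunits, 35 μg protein per tube, in pH 7.4 Tris buffer with 10 μM GDP. Test compounds at 10^−10 to 10^−6 M with 1 μM histamine, 60 min at room temperature. Filter-bound GTP-gamma^35S read by scintillation; IC50 from non-linear regression of dose-response curves.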

Compound | Ki [nM]
CCC(C)N1CCN(C(=O)CN2CCN(c3cccc(OC)c3)CC2)CC1 (stereo not shown) [Compound 875, 1-sec-butyl-4-{[4-(3-methoxyphenyl)piperazin-1-yl]acetyl}piperazine] | < 1000
CCC(C)N1CCN(C(=O)CN2CCN(c3ccc(Cl)c(OC)c3)CC2)CC1 (stereo not shown) [Compound 877, 1-sec-butyl-4-{[4-(4-chloro-3-methoxyphenyl)piperazin-1-yl]acetyl}piperazine] | < 1000
CCC(C)N1CCN(C(=O)CN2CCN(c3ccc(Cl)c(C)c3)CC2)CC1 (stereo not shown) [Compound 878, 1-sec-butyl-4-{[4-(4-chloro-3-methylphenyl)piperazin-1-yl]acetyl}piperazine] | < 1000
CCC(C)N1CCN(C(=O)CN2CCN(c3ccc(Cl)cc3)CC2)CC1 (stereo not shown) [Compound 879, 1-sec-butyl-4-{[4-(4-chlorophenyl)piperazin-1-yl]acetyl}piperazine] | < 1000
CCC(C)N1CCN(C(=O)CN2CCN(c3ccc(F)cc3)CC2)CC1 (stereo not shown) [Compound 880, 1-sec-butyl-4-{[4-(4-fluorophenyl)piperazin-1-yl]acetyl}piperazine] | < 1000
CCC(C)N1CCN(C(=O)CN2CCN(c3ccc(OC)cc3)CC2)CC1 (stereo not shown) [Compound 881, 1-sec-butyl-4-{[4-(4-methoxyphenyl)piperazin-1-yl]acetyl}piperazine] | < 1000
CCC(C)N1CCN(C(=O)CN2CCN(c3ccc(C)cc3)CC2)CC1 (stereo not shown) [Compound 882, 1-sec-butyl-4-{[4-(4-methylphenyl)piperazin-1-yl]acetyl}piperazine] | < 1000
CCC(C)N1CCN(C(=O)CN2CCN(c3ccc([N+](=O)[O-])cc3)CC2)CC1 (stereo not shown) [Compound 883, 1-sec-butyl-4-{[4-(4-nitrophenyl)piperazin-1-yl]acetyl}piperazine] | < 1000
CCC(C)N1CCN(C(=O)CN2CCN(c3cc(Cl)ccc3OC)CC2)CC1 (stereo not shown) [Compound 884, 1-sec-butyl-4-{[4-(5-chloro-2-methoxyphenyl)piperazin-1-yl]acetyl}piperazine] | < 1000
CCC(C)N1CCN(C(=O)CN2CCN(c3cc(Cl)ccc3C)CC2)CC1 (stereo not shown) [Compound 885, 1-sec-butyl-4-{[4-(5-chloro-2-methylphenyl)piperazin-1-yl]acetyl}piperazine] | < 1000
O=C(CN1CCN(c2cnc(-c3cccc(Cl)c3)cn2)CC1)N1CCN(C2CCC2)CC1 [Compound 900, 2-(3-chlorophenyl)-5-{4-[2-(4-cyclobutylpiperazin-1-yl)-2-oxoethyl]piperazin-1-yl}pyrazine] | < 1000
CCCCc1ccc(-c2cnc(N3CCN(CC(=O)N4CCN(C5CCC5)CC4)CC3)cn2)cc1 [Compound 901, 2-(4-butylphenyl)-5-{4-[2-(4-cyclobutylpiperazin-1-yl)-2-oxoethyl]piperazin-1-yl}pyrazine] | < 1000
O=C(CN1CCN(c2cnc(-c3ccc(Cl)cc3F)cn2)CC1)N1CCN(C2CCC2)CC1 [Compound 902, 2-(4-chloro-2-fluorophenyl)-5-{4-[2-(4-cyclobutylpiperazin-1-yl)-2-oxoethyl]piperazin-1-yl}pyrazine] | < 1000
O=C(CN1CCN(c2cnc(-c3ccc(Cl)cc3)cn2)CC1)N1CCN(C2CCC2)CC1 [Compound 904, 2-(4-chlorophenyl)-5-{4-[2-(4-cyclobutylpiperazin-1-yl)-2-oxoethyl]piperazin-1-yl}pyrazine] | < 1000
O=C(OCC(=O)N1CCN(C2CCC2)CC1)N1C=CC2(CC1)c1ccccc1C(=O)N2Cc1ccccc1 (stereo not shown) [Compound 906, 2-(4-cyclobutylpiperazin-1-yl)-2-oxoethyl 2-benzyl-3-oxo-2,2′,3,3′-tetrahydro-1′H-spiro[isoindole-1,4′-pyridine]-1′-carboxylate] | < 1000
O=C1CCc2cc(N3CCC(C(=O)OCC(=O)N4CCN(C5CCCC5)CC4)CC3)ccc21 [Compound 907, 2-(4-cyclopentylpiperazin-1-yl)-2-oxoethyl 1-(1-oxo-2,3-dihydro-1H-inden-5-yl)piperidine-4-carboxylate] | < 1000
CC(=O)c1ccc(N2CCC(C(=O)OCC(=O)N3CCN(C4CCCC4)CC3)CC2)cc1 [Compound 908, 2-(4-cyclopentylpiperazin-1-yl)-2-oxoethyl 1-(4-acetylphenyl)piperidine-4-carboxylate] | < 1000
O=C(CN1CCN(c2cnc(-c3cc(C(F)(F)F)ccc3Cl)cn2)CC1)N1CCN(C2CCC2)CC1 [Compound 912, 2-[2-chloro-5-(trifluoromethyl)phenyl]-5-{4-[2-(4-cyclobutylpiperazin-1-yl)-2-oxoethyl]piperazin-1-yl}pyrazine] | < 1000
O=C(CN1CCN(c2cnc(-c3cc(C(F)(F)F)cc(C(F)(F)F)c3)cn2)CC1)N1CCN(C2CCC2)CC1 [Compound 913, 2-[3,5-bis(trifluoromethyl)phenyl]-5-{4-[2-(4-cyclobutylpiperazin-1-yl)-2-oxoethyl]piperazin-1-yl}pyrazine] | < 1000
O=C(CN1CCN(c2cnc(-c3ccncc3)cn2)CC1)N1CCN(C2CCC2)CC1 [Compound 917, 2-{4-[2-(4-cyclobutylpiperazin-1-yl)-2-oxoethyl]piperazin-1-yl}-5-pyridin-4-ylpyrazine] | < 1000
O=C(CN1CCN(c2cnc(-c3ccccc3)cn2)CC1)N1CCN(C2CCC2)CC1 [Compound 918, 2-{4-[2-(4-cyclobutylpiperazin-1-yl)-2-oxoethyl]piperazin-1-yl}-5-phenylpyrazine] | < 1000
Cc1ccc(-c2cnc(N3CCN(CC(=O)N4CCN(C5CCC5)CC4)CC3)cn2)c(F)c1 [Compound 920, 2-{4-[2-(4-cyclobutylpiperazin-1-yl)-2-oxoethyl]piperazin-1-yl}-5-(2-fluoro-4-methylphenyl)pyrazine] | < 1000
Cc1ccc(F)c(-c2cnc(N3CCN(CC(=O)N4CCN(C5CCC5)CC4)CC3)cn2)c1 [Compound 921, 2-{4-[2-(4-cyclobutylpiperazin-1-yl)-2-oxoethyl]piperazin-1-yl}-5-(2-fluoro-5-methylphenyl)pyrazine] | < 1000

Results, then the compound that gave them:

Ki [nM] | Compound
< 1000 | CCC(C)N1CCN(C(=O)CN2CCN(c3cccc(C)c3)CC2)CC1 (stereo not shown) [Compound 876, 1-sec-butyl-4-{[4-(3-methylphenyl)piperazin-1-yl]acetyl}piperazine]
< 1000 | O=C(CN1CCN(c2cnc(-c3ccc4c(c3)OCO4)cn2)CC1)N1CCN(C2CCC2)CC1 [Compound 896, 2-(1,3-benzodioxol-5-yl)-5-{4-[2-(4-cyclobutylpiperazin-1-yl)-2-oxoethyl]piperazin-1-yl}pyrazine]
< 1000 | Cc1ccc(F)c(-c2cnc(N3CCN(CC(=O)N4CCN(C5CCC5)CC4)CC3)cn2)c1Cl [Compound 897, 2-(2-chloro-6-fluoro-3-methylphenyl)-5-{4-[2-(4-cyclobutylpiperazin-1-yl)-2-oxoethyl]piperazin-1-yl}pyrazine]
< 1000 | O=C(CN1CCN(c2cnc(-c3ccccc3Cl)cn2)CC1)N1CCN(C2CCC2)CC1 [Compound 898, 2-(2-chlorophenyl)-5-{4-[2-(4-cyclobutylpiperazin-1-yl)-2-oxoethyl]piperazin-1-yl}pyrazine]
< 1000 | O=C(CN1CCN(c2cnc(-c3ccc(F)c(Cl)c3)cn2)CC1)N1CCN(C2CCC2)CC1 [Compound 899, 2-(3-chloro-4-fluorophenyl)-5-{4-[2-(4-cyclobutylpiperazin-1-yl)-2-oxoethyl)piperazin-1-yl}pyrazine]
< 1000 | O=C(CN1CCN(c2cnc(-c3ccc(Cl)c(F)c3)cn2)CC1)N1CCN(C2CCC2)CC1 [Compound 903, 2-(4-chloro-3-fluorophenyl)-5-{4-[2-(4-cyclobutylpiperazin-1-yl)-2-oxoethyl]piperazin-1-yl}pyrazine]
< 1000 | O=C1CCc2cc(N3CCC(C(=O)OCC(=O)N4CCN(C5CCC5)CC4)CC3)ccc21 [Compound 905, 2-(4-cyclobutylpiperazin-1-yl)-2-oxoethyl 1-(1-oxo-2,3-dihydro-1H-inden-5-yl)piperidine-4-carboxylate]
< 1000 | O=C1CCc2cc(N3CCN(C(=O)OCC(=O)N4CCN(C5CCCC5)CC4)CC3)ccc21 [Compound 909, 2-(4-cyclopentylpiperazin-1-yl)-2-oxoethyl 4-(1-oxo-2,3-dihydro-1H-inden-5-yl)piperazine-1-carboxylate]
< 1000 | CC(C)(C)c1ccc(-c2cnc(N3CCN(CC(=O)N4CCN(C5CCC5)CC4)CC3)cn2)cc1 [Compound 910, 2-(4-tert-butylphenyl)-5-{4-[2-(4-cyclobutylpiperazin-1-yl)-2-oxoethyl]piperazin-1-yl}pyrazine]
< 1000 | COc1ccc(Cl)cc1-c1cnc(N2CCN(CC(=O)N3CCN(C4CCC4)CC3)CC2)cn1 [Compound 911, 2-(5-chloro-2-methoxyphenyl)-5-{4-[2-(4-cyclobutylpiperazin-1-yl)-2-oxoethyl]piperazin-1-yl}pyrazine]
< 1000 | O=C(CN1CCN(c2cnc(-c3ccc(Cl)c(C(F)(F)F)c3)cn2)CC1)N1CCN(C2CCC2)CC1 [Compound 914, 2-[4-chloro-3-(trifluoromethyl)phenyl]-5-{4-[2-(4-cyclobutylpiperazin-1-yl)-2-oxoethyl]piperazin-1-yl}pyrazine]
< 1000 | O=C(CN1CCN(c2nc3ccccc3n2Cc2ccc(F)cc2)CC1)N1CCN(C2CCC2)CC1 [Compound 915, 2-{4-[2-(4-cyclobutylpiperazin-1-yl)-2-oxoethyl]piperazin-1-yl}-1-(4-fluorobenzyl)-1H-benzimidazole]
< 1000 | O=C(CN1CCN(c2ncc(F)cn2)CC1)N1CCN(C2CCC2)CC1 [Compound 916, 2-{4-[2-(4-cyclobutylpiperazin-1-yl)-2-oxoethyl]piperazin-1-yl}-5-fluoropyrimidine]
< 1000 | O=C(CN1CCN(c2cnc(-c3ccc(F)cc3)cn2)CC1)N1CCN(C2CCC2)CC1 [Compound 919, 2-{4-[2-(4-cyclobutylpiperazin-1-yl)-2-oxoethyl]piperazin-1-yl}-5-(4-fluorophenyl)pyrazine]
